The experiment has as its system T47D (PIK3CA H1047R) cells. In words: pS473 AKT assay with 2.5% FBS, T47D cells. Conditions: Homo sapiens, pSer473 AKT, DMEM with 2.5% FBS, 2 h treatment, read-out: T47D_IC50. The class given is cell-based. In outline: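 In-cell chemiluminescent ELISA of AKT Ser473 phosphorylation, using anti-pSer473 primary and HRP secondary antibodies on fixed cells. T47D (PIK3CA H1047R) cells had 2 h of compound treatment in DMEM containing 2.5% FBS; IC50 derived from dose-response.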

A value given as a limit tells only on which side of the number the result lay.

As to `Cc1cc(C(C)Nc2ccccc2C(=O)O)c2c(c1)c(=O)n1c3c2cnn3CCC1` (stereo not drawn) [Compound I-36, 2-((1-(8-Methyl-6-oxo-4,5-dihydro-3H,6H-2,2a,5a-triazaaceanthrylen-10-yl)ethyl)amino)benzoic acid], the IC50 is under 1 µM.
In the case of `Cc1cc(C(C)Nc2ccc(C)nc2C(=O)O)c2c(c1)c(=O)n1c3c2cnn3CCC1` (stereo not drawn) [Compound I-37, 6-Methyl-3-((1-(8-methyl-6-oxo-4,5-dihydro-3H,6H-2,2a,5a-triazaaceanthrylen-10-yl)ethyl)amino)picolinic acid], the IC50 was under 1 µM.
For the molecule `Cc1cc(C(C)Nc2ccccc2C(=O)O)c2c(c1)c(=O)n1c3c2cnn3C(C)CC1` (stereo not drawn) [Compound I-38, 2-((1-(3,8-Dimethyl-6-oxo-4,5-dihydro-3H,6H-2,2a,5a-triazaaceanthrylen-10-yl)ethyl)amino)benzoic acid], the IC50 is under 1 µM.
With `Cc1cc(C(C)Nc2ccc(Cl)nc2C(=O)O)c2c(c1)c(=O)n1c3c2cnn3C(C)CC1` (stereo not drawn) [Compound I-39, 6-Chloro-3-((1-(3,8-dimethyl-6-oxo-4,5-dihydro-3H,6H-2,2a,5a-triazaaceanthrylen-10-yl)ethyl)amino)picolinic acid] the figure was under 1 µM; with `Cc1cc(C(C)Nc2ccc(Cl)nc2-c2cnn(C)c2)c2c(c1)c(=O)n(C)c1c2cnn1C1CCN(S(C)(=O)=O)CC1` (stereo not drawn) [Example 183, 9-[1-[[6-chloro-2-(1-methylpyrazol-4-yl)-3-pyridyl]amino]ethyl]-4,7-dimethyl-3-(1-methylsulfonyl-4-piperidyl)pyrazolo[3,4-c]isoquinolin-5-one], under 1 µM; with `COC(=O)N1CCC(n2ncc3c4c(C(C)Nc5ccc(Cl)nc5-c5cnn(C)c5)cc(C)cc4c(=O)n(C)c32)CC1` (stereo not drawn) [Example 184, methyl 4-[9-[1-[[6-chloro-2-(1-methylpyrazol-4-yl)-3-pyridyl]amino]ethyl]-4,7-dimethyl-5-oxo-pyrazolo[3,4-c]isoquinolin-3-yl]piperidine-1-carboxylate], under 1 µM.
As to `Cc1cc(C(C)Nc2ccc(Cl)nc2-c2cnn(C)c2)c2c(c1)c(=O)n(C)c1c2cnn1C1CCN(S(=O)(=O)C2CC2)CC1` (stereo not drawn) [Example 185, 9-[1-[[6-chloro-2-(1-methylpyrazol-4-yl)-3-pyridyl]amino]ethyl]-3-(1-cyclopropylsulfonyl-4-piperidyl)-4,7-dimethyl-pyrazolo[3,4-c]isoquinolin-5-one], the IC50 is under 1 µM.
With `Cc1cc(C(C)Nc2ccc(Cl)nc2-c2cnn(C)c2)c2c(c1)c(=O)n(C)c1c2cnn1C1CCN(C(=O)N(C)C)CC1` (stereo not drawn) [Example 186, 4-(9-(1-((6-chloro-2-(1-methyl-1H-pyrazol-4-yl)pyridin-3-yl)amino)ethyl)-4,7-dimethyl-5-oxo-4,5-dihydro-3H-pyrazolo[3,4-c]isoquinolin-3-yl)-N,N-dimethylpiperidine-1-carboxamide] the figure was under 1 µM; with `CC(=O)N1CCC(n2ncc3c4c(C(C)Nc5ccc(Cl)nc5-c5ccc(=O)n(C)c5)cc(C)cc4c(=O)n(C)c32)CC1` (stereo not drawn) [Example 187, 3-(1-acetylpiperidin-4-yl)-9-(1-((6-chloro-1′-methyl-6′-oxo-1′,6′-dihydro-[2,3′-bipyridin]-3-yl)amino)ethyl)-4,7-dimethyl-3,4-dihydro-5H-pyrazolo[3,4-c]isoquinolin-5-one], under 1 µM.
With `CC(=O)N1CCC(n2ncc3c4c(C(C)Nc5ccc(Cl)nc5-c5ncn(C)n5)cc(C)cc4c(=O)n(C)c32)CC1` (stereo not drawn) [Example 188, 3-(1-acetylpiperidin-4-yl)-9-(1-((6-chloro-2-(1-methyl-1H-1,2,4-triazol-3-yl)pyridin-3-yl)amino)ethyl)-4,7-dimethyl-3,4-dihydro-5H-pyrazolo[3,4-c]isoquinolin-5-one] the figure was under 1 µM; with `Cc1cc(C(C)Nc2ccc(C)nc2-c2cnn(C)c2)c2c(c1)c(=O)n(C)c1c2cnn1C1CCN(S(C)(=O)=O)CC1` (stereo not drawn) [Example 189, 4,7-dimethyl-9-(1-((6-methyl-2-(1-methyl-1H-pyrazol-4-yl)pyridin-3-yl)amino)ethyl)-3-(1-(methylsulfonyl)piperidin-4-yl)-3,4-dihydro-5H-pyrazolo[3,4-c]isoquinolin-5-one], under 1 µM; with `Cc1cc(C(C)Nc2ccc(Cl)nc2-c2ncn(C)n2)c2c(c1)c(=O)n(C)c1c2cnn1C1CCN(S(C)(=O)=O)CC1` (stereo not drawn) [Example 190, 9-(1-((6-chloro-2-(1-methyl-1H-1,2,4-triazol-3-yl)pyridin-3-yl)amino)ethyl)-4,7-dimethyl-3-(1-(methylsulfonyl)piperidin-4-yl)-3,4-dihydro-5H-pyrazolo[3,4-c]isoquinolin-5-one], under 1 µM.
For `Cc1cc(C(C)Nc2ccc(Cl)nc2-c2ccc3c(c2)CN(C)C3=O)c2c(c1)c(=O)n(C)c1c2cnn1C1CCN(S(C)(=O)=O)CC1` (stereo not drawn) [Example 191, 9-(1-((6-chloro-2-(2-methyl-1-oxoisoindolin-5-yl)pyridin-3-yl)amino)ethyl)-4,7-dimethyl-3-(1-(methylsulfonyl)piperidin-4-yl)-3,4-dihydro-5H-pyrazolo[3,4-c]isoquinolin-5-one], the IC50 was under 1 µM.
For the molecule `Cc1cc(C(C)Nc2ccc(Cl)nc2-c2ccc3ncccc3c2)c2c(c1)c(=O)n(C)c1c2cnn1C1CCN(S(C)(=O)=O)CC1` (stereo not drawn) [Example 192, 9-(1-((6-chloro-2-(quinolin-6-yl)pyridin-3-yl)amino)ethyl)-4,7-dimethyl-3-(1-(methylsulfonyl)piperidin-4-yl)-3,4-dihydro-5H-pyrazolo[3,4-c]isoquinolin-5-one], the IC50 is under 1 µM.
As for `Cc1cc(C(C)Nc2ccc(Cl)nc2-c2cnn(C)c2)c2c(c1)c(=O)n(C)c1c2cnn1C1CCN(C(=O)CO)CC1` (stereo not drawn) [Example 193, 9-[1-[[6-Chloro-2-(1-methylpyrazol-4-yl)-3-pyridyl]amino]ethyl]-3-[1-(2-hydroxyacetyl)-4-piperidyl]-4,7-dimethyl-pyrazolo[3,4-c]isoquinolin-5-one], the IC50 was under 1 µM.
As to `Cc1cc(C(C)Nc2ccc(Cl)nc2-c2ncn(C)n2)c2c(c1)c(=O)n(C)c1c2cnn1C1CCN(C(=O)C2(C#N)CC2)CC1` (stereo not drawn) [Example 194, 1-(4-(9-(1-((6-chloro-2-(1-methyl-1H-1,2,4-triazol-3-yl)pyridin-3-yl)amino)ethyl)-4,7-dimethyl-5-oxo-4,5-dihydro-3H-pyrazolo[3,4-c]isoquinolin-3-yl)piperidine-1-carbonyl)cyclopropane-1-carbonitrile], the IC50 was under 1 µM.
`Cc1cc(C(C)Nc2ccc(Cl)nc2-c2ncn(C)n2)c2c(c1)c(=O)n(C)c1c2cnn1C1CCN(C(=O)c2ccnn2C)CC1` (stereo not drawn) [Example 195, 9-(1-((6-chloro-2-(1-methyl-1H-1,2,4-triazol-3-yl)pyridin-3-yl)amino)ethyl)-4,7-dimethyl-3-(1-(1-methyl-1H-pyrazole-5-carbonyl)piperidin-4-yl)-3,4-dihydro-5H-pyrazolo[3,4-c]isoquinolin-5-one]: the IC50 is under 1 µM.
With `Cc1cc(C(C)Nc2ccc(Cl)nc2-c2cnn(C)c2)c2c(c1)c(=O)n(C)c1c2cnn1C1CCN(C(=O)CN(C)C)CC1` (stereo not drawn) [Example 196, 9-(1-((6-chloro-2-(1-methyl-1H-pyrazol-4-yl)pyridin-3-yl)amino)ethyl)-3-(1-(dimethylglycyl)piperidin-4-yl)-4,7-dimethyl-3,4-dihydro-5H-pyrazolo[3,4-c]isoquinolin-5-one] the figure was under 1 µM; with `Cc1cc(C(C)Nc2ccc(Cl)nc2-c2ncn(C)n2)c2c(c1)c(=O)n(C)c1c2cnn1C1CCN(C(=O)[C@@H]2CCCN2C)CC1` (stereo partly drawn) [Example 197, 9-(1-((6-chloro-2-(1-methyl-1H-1,2,4-triazol-3-yl)pyridin-3-yl)amino)ethyl)-4,7-dimethyl-3-(1-(methyl-L-prolyl)piperidin-4-yl)-3,4-dihydro-5H-pyrazolo[3,4-c]isoquinolin-5-one], under 1 µM; with `CC(Nc1ccc(Cl)nc1-c1cnn(C)c1)c1cc(C#N)cc2c(=O)n(C)c3c(cnn3C3CCN(C)CC3)c12` (stereo not drawn) [Example 198, 9-(1-((6-Chloro-2-(1-methyl-1H-pyrazol-4-yl)pyridin-3-yl)amino)ethyl)-4-methyl-3-(1-methylpiperidin-4-yl)-5-oxo-4,5-dihydro-3H-pyrazolo[3,4-c]isoquinoline-7-carbonitrile], under 1 µM.
With `CCn1c(=O)c2cc(C)cc(C(C)Nc3ccc(Cl)nc3-c3ncn(C)n3)c2c2cn(C3CCOCC3)nc21` (stereo not drawn) [Example 199, 9-(1-((6-Chloro-2-(1-methyl-1H-1,2,4-triazol-3-yl)pyridin-3-yl)amino)ethyl)-4-ethyl-7-methyl-2-(tetrahydro-2H-pyran-4-yl)-2,4-dihydro-5H-pyrazolo[3,4-c]isoquinolin-5-one] the figure was under 1 µM.
With `Cc1cc(C(C)Nc2ccc(Cl)nc2-c2noc(=O)[nH]2)c2c(c1)c(=O)n(C)c1nn(C3CCOCC3)cc21` (stereo not drawn) [Example 200, 3-(6-chloro-3-((1-(4,7-dimethyl-5-oxo-2-(tetrahydro-2H-pyran-4-yl)-4,5-dihydro-2H-pyrazolo[3,4-c]isoquinolin-9-yl)ethyl)amino)pyridin-2-yl)-1,2,4-oxadiazol-5(4H)-one] the figure was under 1 µM; with `CCn1c(=O)c2cc(C)cc(C(C)Nc3ccc(Cl)nc3-c3ncn(C)n3)c2c2cn(C3CCN(C)CC3)nc21` (stereo not drawn) [Example 201, 9-(1-((6-Chloro-2-(1-methyl-1H-1,2,4-triazol-3-yl)pyridin-3-yl)amino)ethyl)-4-ethyl-7-methyl-2-(1-methylpiperidin-4-yl)-2,4-dihydro-5H-pyrazolo[3,4-c]isoquinolin-5-one], under 1 µM.
As to `CCn1c(=O)c2cc(C)cc(C(C)Nc3ccc(Cl)nc3-c3ncn(C)n3)c2c2cn(C3CCN(C(C)=O)CC3)nc21` (stereo not drawn) [Example 202, 2-(1-Acetylpiperidin-4-yl)-9-(1-((6-chloro-2-(1-methyl-1H-1,2,4-triazol-3-yl)pyridin-3-yl)amino)ethyl)-4-ethyl-7-methyl-2,4-dihydro-5H-pyrazolo[3,4-c]isoquinolin-5-one], the IC50 was under 1 µM.

Values taken from patent publication US20250270213A1, “PI3Ka INHIBITORS” (Synnovation Therapeutics, Inc., priority 2022, published 2025).
